Data: patent publication US10071086B2, “1H-pyrazolo[3,4-b]pyridines and therapeutic uses thereof” (Samumed, LLC, priority 2012, dated 2018)

Experiments:
[1] = system: Wnt pathway; assay: Wnt activity reporter assay (SP5 promoter-luciferase in SW480 cells); assay type: cell-based; details: Homo sapiens, SP5 promoter firefly luciferase reporter, read-out: Wnt inhibition
How it was run: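 SW480 cells stably carrying an SP5 promoter (eight TCF/LEF sites)-firefly luciferase reporter were seeded at ~10,000 per well and given half-log compound dilutions from a 10 µM top concentration.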

[2] = system: β-catenin; assay: NL-20 β-catenin reporter assay (primary screening assay for IPF); assay type: cell-based; details: transformed human bronchial epithelial cell line NL-20
Excerpt: Compounds of Formulas (I) or (II) were screened in a β-catenin-based reporter assay in a transformed human bronchial epithelial cell line (NL-20).

Row | SMILES | IC50 [1] [nM] | IC50 ([2]; NL20) [nM] | IC50 [2] [nM]
1 | Nc1cncc(-c2cnc3[nH]nc(-c4nc5c(-c6cccc(F)c6)cncc5[nH]4)c3c2)c1 [Compound 5, 5-(3-(7-(3-Fluorophenyl)-3H-imidazo[4,5-c]pyridin-2-yl)-1H-pyrazolo[3,4-b]pyridin-5-yl)pyridin-3-amine] | 3.9 | 175 | –
2 | CN(C)c1cncc(-c2cnc3[nH]nc(-c4nc5c(-c6cccc(F)c6)cncc5[nH]4)c3c2)c1 [Compound 7, 5-(3-(7-(3-Fluorophenyl)-3H-imidazo[4,5-c]pyridin-2-yl)-1H-pyrazolo[3,4-b]pyridin-5-yl)-N,N-dimethylpyridin-3-amine] | 6 | 1900 | –
3 | CC(C)Nc1cncc(-c2cnc3[nH]nc(-c4nc5c(-c6cccc(F)c6)cncc5[nH]4)c3c2)c1 [Compound 9, 5-(3-(7-(3-Fluorophenyl)-3H-imidazo[4,5-c]pyridin-2-yl)-1H-pyrazolo[3,4-b]pyridin-5-yl)-N-isopropylpyridin-3-amine] | 1.2 | 67 | –
4 | CN1CCN(Cc2cc(F)cc(-c3cncc4[nH]c(-c5n[nH]c6ncc(-c7cccnc7)cc56)nc34)c2)CC1 [Compound 10, 3-(7-(3-Fluoro-5-((4-methylpiperazin-1-yl)methyl)phenyl)-3H-imidazo[4,5-c]pyridin-2-yl)-5-(pyridin-3-yl)-1H-pyrazolo[3,4-b]pyridine] | 263 | 247 | –
5 | CN1CCN(c2cc(F)cc(-c3cncc4[nH]c(-c5n[nH]c6ncc(-c7cccnc7)cc56)nc34)c2)CC1 [Compound 11, 3-(7-(3-Fluoro-5-(4-methylpiperazin-1-yl)phenyl)-3H-imidazo[4,5-c]pyridin-2-yl)-5-(pyridin-3-yl)-1H-pyrazolo[3,4-b]pyridine] | 99 | 210 | –
6 | CN(C)CCNc1cc(F)cc(-c2cncc3[nH]c(-c4n[nH]c5ncc(-c6cccnc6)cc45)nc23)c1 [Compound 12, N1-(3-Fluoro-5-(2-(5-(pyridin-3-yl)-1H-pyrazolo[3,4-b]pyridin-3-yl)-3H-imidazo[4,5-c]pyridin-7-yl)phenyl)-N2,N2-dimethylethane-1,2-diamine] | 21 | 310 | –
7 | CN(C)Cc1cc(F)cc(-c2cncc3[nH]c(-c4n[nH]c5ncc(-c6cccnc6)cc45)nc23)c1 [Compound 14, 1-(3-Fluoro-5-(2-(5-(pyridin-3-yl)-1H-pyrazolo[3,4-b]pyridin-3-yl)-3H-imidazo[4,5-c]pyridin-7-yl)phenyl)-N,N-dimethylmethanamine] | 138 | 2030 | –
8 | CN(C)Cc1cncc(-c2cnc3[nH]nc(-c4nc5c(-c6cccc(F)c6)cncc5[nH]4)c3c2)c1 [Compound 18, 1-(5-(3-(7-(3-Fluorophenyl)-3H-imidazo[4,5-c]pyridin-2-yl)-1H-pyrazolo[3,4-b]pyridin-5-yl)pyridin-3-yl)-N,N-dimethylmethanamine] | 13 | 440 | –
9 | CN(C)Cc1cncc(-c2cnc3[nH]nc(-c4nc5c(-c6cccs6)cncc5[nH]4)c3c2)c1 [Compound 452, N,N-Dimethyl-1-(5-(3-(7-(thiophen-2-yl)-3H-imidazo[4,5-c]pyridin-2-yl)-1H-pyrazolo[3,4-b]pyridin-5-yl)pyridin-3-yl)methanamine] | 48 | 1090 | –
10 | O=C1C(Cc2ccc(O)cc2)N2C(=O)CCN(C(=O)NCc3ccccc3)C2CN1Cc1cccc2ccccc12 (stereo not shown) [ICG-001, reference compound] | – | – | 7000
